Test results as given in patent US20130023563A1, “AMIDINOANILINE DERIVATIVE” (AJINOMOTO CO., INC., priority 2010, published 2013).
Where a name gives a salt, the structure may show the parent alone.

Key:
Assay type in all cases: biochemical
[1] = molecular target: FXa (Homo sapiens, UniProt P00742); test: Measurement of inhibitory activity against activated factor X (chromogenic substrate S-2222); conditions: 0.015 U/ml FXa, 0.2 mM S-2222, absorbance 405 nm; read-out: FXa (pIC50) (converted)
Protocol: Experimental Example 1 Measurement of Inhibitory Activity Against Activated Factor X Activity
(§1) Using a 96-well plate (#3396, Costar), 100 mM Tris-HC1 buffer (130 μL) containing 0.02% Tween 20, 0.1% PEG6000 and 0.2M NaCl was admixed with 0.015 U/ml FXa (10 μL) and a test compound (10 μL) for 10 min and a color developing substrate 0.2 mM S-2222 (50 μL) was added. Using a microplate reader Benchmark Plus (BIO-RAD), the reaction rate was measured from the time course changes at absorbance 405 nm. Using the reaction rate of the control as 100%, the negative logarithmic value of the concentration that can suppress the reaction rate of the control by 50% was taken as the pIC50 value.

[2] = molecular target: activated factor IIa (thrombin) (Homo sapiens, UniProt P00734); test: Measurement of inhibitory activity against activated factor II (chromogenic substrate S-2238); conditions: 0.125 U/ml thrombin, 0.1 mM S-2238, absorbance 405 nm; read-out: FIIa (pIC50) (converted)
Protocol: Experimental Example 2 Measurement of Inhibitory Activity Against Activated Factor II (FIIa, Thrombin)
as §1, with “mM Tris-HCl” for “mM Tris-HC1”, “with 0.125” for “with 0.015”, “U/ml activated factor IIa (thrombin)” for “U/ml FXa”, “substrate 0.1” for “substrate 0.2”, “mM S-2238” for “mM S-2222”

[3] = tested on: human plasma; test: Anti-blood coagulant activity, aPTT method, Sysmex Cs-2000i (Experimental Example 3-2); conditions: negative logarithmic value of the concentration that prolongs aPTT of the control 2 times
Protocol: Experimental Example 3-2 Measurement of Anti-Blood Coagulant Activity
An aPTT measurement method using totally automatic blood coagulation time measuring apparatus Sysmex Cs-2000i was used. A 10 mg/ml DDVP solution (DDVP standard product, Wako) (8 μL) and a test compound solution (40 μL) were placed in a sample tube (MS-18, Japan Medical Science), human plasma (standard human plasma for blood coagulation test, GCH-100A, Sysmex) (360 μL) was added and the mixture was used as a test sample. The test sample (50 μL) was incubated at 37° C. for 1 min, data fi APTT (rabbit brain-derived cephalin, DADE Behiring) (50 μL) was added, and the mixture was further incubated at 37° C. for 2 min. To the sample solution was added 0.02M calcium chloride (50 μL), and the time until plasma coagulation was automatically measured.
As the anti-blood coagulant activity, the negative logarithmic value of the concentration that prolongs aPTT of the control 2 times is shown as paPTT2.

Sequence of FXa (P00742 235-488 limits assumed): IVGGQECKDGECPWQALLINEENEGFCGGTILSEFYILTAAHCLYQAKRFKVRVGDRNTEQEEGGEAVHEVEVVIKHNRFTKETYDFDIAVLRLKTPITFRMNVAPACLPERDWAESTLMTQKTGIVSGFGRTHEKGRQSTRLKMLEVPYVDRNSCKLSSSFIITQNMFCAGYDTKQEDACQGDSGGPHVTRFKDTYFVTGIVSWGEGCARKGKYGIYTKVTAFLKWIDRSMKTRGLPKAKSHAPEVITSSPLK
Sequence of FXa (P00742 41-179 partner limits assumed): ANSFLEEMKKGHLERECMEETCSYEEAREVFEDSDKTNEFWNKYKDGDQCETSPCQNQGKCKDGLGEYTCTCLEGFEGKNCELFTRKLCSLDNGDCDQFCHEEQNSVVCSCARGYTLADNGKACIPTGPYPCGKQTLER

SMILES	IC50 [1] [nM]	IC50 [2] [nM]	paPTT2 [3]
CC(=N)N1CCC(Oc2ccc(OC(=O)[C@H](C)N(C)c3cccc(C(=N)N)c3)cc2)CC1 [compound of Ex. 6, 4-[(1-ethanimidoylpiperidin-4-yl)oxy]phenyl N-{3-[amino(imino)methyl]phenyl}-N-methyl-L-alaninate 2 trifluoroacetate]	14.5	33100	6.81
CC(=N)N1CCC(Oc2ccc(OC(=O)[C@@H](C)N(C)c3cccc(C(=N)N)c3)cc2)CC1 [compound of Ex. 7, 4-[(1-ethanimidoylpiperidin-4-yl)oxy]phenyl N-{3-[amino(imino)methyl]phenyl}-N-methyl-D-alaninate 2 trifluoroacetate]	21.4	33100	6.85
N=C(N)c1cccc(N2C[C@H](O)C[C@H]2C(=O)Oc2ccc(C(=N)N3CCCC3)cc2)c1 [compound of Ex. 15, 4-[imino(pyrrolidin-1-yl)methyl]phenyl (4R)-1-[(3-[amino(imino)methyl]phenyl]-4-hydroxy-L-prolinate 2 trifluoroacetate]	224	28200	5.68
N=C(N)c1cccc(N2CCCC[C@@H]2C(=O)Oc2ccc(C(=N)N3CCCC3)cc2Cl)c1 [compound of Ex. 20, 2-chloro-4-[imino(pyrrolidin-1-yl)methyl]phenyl (2R)-1-{3-[amino(imino)methyl]phenyl}piperidine-2-carboxylate 2 trifluoroacetate]	6.46	1200	6.93
N=C(N)c1cccc(N2CCCC[C@@H]2C(=O)Oc2ccc(C(=N)N3CCCC3)cc2F)c1 [compound of Ex. 21, 2-fluoro-4-[imino(pyrrolidin-1-yl)methyl]phenyl (2R)-1-{3-[amino(imino)methyl]phenyl}piperidine-2-carboxylate 2 trifluoroacetate]	5.13	1910	6.94
CC(C)[C@@H](C(=O)Oc1ccc(C(=N)N2CCCC2)cc1)N(C)c1cccc(C(=N)N)c1 [compound of Ex. 28, 4-[imino(pyrrolidin-1-yl)methyl]phenyl N-{3-[amino(imino)methyl]phenyl}-N-methyl-L-valinate 2 trifluoroacetate]	30.9	14100	6.55
CC(C)C[C@@H](C(=O)Oc1ccc(C(=N)N2CCCC2)cc1)N(C)c1cccc(C(=N)N)c1 [compound of Ex. 29, 4-[imino(pyrrolidin-1-yl)methyl]phenyl N-{3-[amino(imino)methyl]phenyl}-N-methyl-L-leucinate 2 trifluoroacetate]	11.2	25700	6.72
CCC(C)[C@@H](C(=O)Oc1ccc(C(=N)N2CCCC2)cc1)N(C)c1cccc(C(=N)N)c1 (stereo partly drawn) [compound of Ex. 33, 4-[imino(pyrrolidin-1-yl)methyl]phenyl N-{3-[amino(imino)methyl]phenyl}-N-methyl-L-isoleucinate 2 trifluoroacetate]	8.13	13200	6.80
COc1cc(C(=N)N2CCCC2)ccc1OC(=O)[C@H](C)N(C)c1cccc(C(=N)N)c1 [compound of Ex. 36, 4-[imino(pyrrolidin-1-yl)methyl]-2-methoxyphenyl N-{3-[amino(imino)methyl]phenyl}-N-methyl-L-alaninate 2 trifluoroacetate]	31.6	7080	6.67
CCC(C)[C@H](C(=O)Oc1ccc(C(=N)N2CCCC2)cc1F)N(C)c1cccc(C(=N)N)c1 (stereo partly drawn) [compound of Ex. 39, 2-fluoro-4-[imino(pyrrolidin-1-yl)methyl]phenyl N-{3-[amino(imino)methyl]phenyl}-N-methyl-L-isoleucinate 2 trifluoroacetate]	15.1	25700	6.50
CC(=N)N1CCC(Oc2ccc(OC(=O)[C@@H](COC(C)(C)C)N(C)c3cccc(C(=N)N)c3)cc2)CC1 [compound of Ex. 40, 4-[(1-ethanimidoylpiperidin-4-yl)oxy]phenyl N-{3-[amino(imino)methyl]phenyl}-O-(tert-butyl)-N-methyl-L-serinate 2 trifluoroacetate]	4.47	34700	6.53
CCCC[C@H](C(=O)Oc1ccc(OC2CCN(C(C)=N)CC2)cc1)N(C)c1cccc(C(=N)N)c1 [compound of Ex. 41, 4-[(1-ethanimidoylpiperidin-4-yl)oxy]phenyl N-{3-[amino(imino)methyl]phenyl}-N-methyl-L-norleucinate 2 trifluoroacetate]	2.95	2190	6.53
CC(=N)N1CCC(Oc2ccc(OC(=O)[C@H](CO)N(C)c3cccc(C(=N)N)c3)cc2)CC1 [compound of Ex. 42, 4-[(1-ethanimidoylpiperidin-4-yl)oxy]phenyl N-{3-[amino(imino)methyl]phenyl}-N-methyl-L-serinate 2 trifluoroacetate]	13.8	51300	6.64
CCCC[C@@H](C(=O)Oc1ccc(C(=N)N2CCCC2)cc1OC)N(C)c1cccc(C(=N)N)c1 [compound of Ex. 43, 4-[imino(pyrrolidin-1-yl)methyl]-2-methoxyphenyl N-{3-[amino(imino)methyl]phenyl}-N-methyl-L-norleucinate 2 trifluoroacetate]	3.09	977	6.90
CCC[C@H](C(=O)Oc1ccc(OC2CCN(C(C)=N)CC2)cc1)N(C)c1cccc(C(=N)N)c1 [compound of Ex. 44, 4-[(1-ethanimidoylpiperidin-4-yl)oxy]phenyl N-{3-[amino(imino)methyl]phenyl}-N-methyl-L-norvalinate 2 trifluoroacetate]	3.16	1740	6.87
CCCC[C@@H](C(=O)Oc1ccc(C(=N)N2CCCC2)cc1C)N(C)c1cccc(C(=N)N)c1 [compound of Ex. 45, 4-[imino(pyrrolidin-1-yl)methyl]-2-methylphenyl N-{3-[amino(imino)methyl]phenyl}-N-methyl-L-norleucinate 2 trifluoroacetate]	3.02	2570	6.71
CN(c1cccc(C(=N)N)c1)[C@@H](Cc1ccccc1)C(=O)Oc1ccc(C(=N)N2CCCC2)cc1 [compound of Ex. 46, 4-[imino(pyrrolidin-1-yl)methyl]phenyl N-{3-[amino(imino)methyl]phenyl}-N-methyl-L-phenylalaninate 2 trifluoroacetate]	2.95	15500	6.87
CCC(C(=O)Oc1ccc(C(=N)N2CCCC2)cc1)N(C)c1cccc(C(=N)N)c1 (centres unmarked) [compound of Ex. 47, 4-[imino(pyrrolidin-1-yl)methyl]phenyl 2-[{3-[amino(imino)methyl]phenyl}(methyl)amino]butanoate 2 trifluoroacetate]	8.13	22400	6.82
N=C(N)c1cccc(N2CCCC[C@@H]2C(=O)Oc2ccc(C(=N)N3CCCC3)nc2)c1 [compound of Ex. 50, 6-[imino(pyrrolidin-1-yl)methyl]pyridin-3-yl (2R)-1-{3-[amino(imino)methyl]phenyl}piperidine-2-carboxylate 2 trifluoroacetate]	5.5	3630	6.66
COC(=O)c1cc(C(=N)N2CCCC2)ccc1OC(=O)[C@H]1CCCCN1c1cccc(C(=N)N)c1 [compound of Ex. 51, 4-[imino(pyrrolidin-1-yl)methyl]-2-(methoxycarbonyl)phenyl (2R)-1-{3-[amino(imino)methyl]phenyl}piperidine-2-carboxylate 2 trifluoroacetate]	14.1	2240	6.79
CC(=N)N1CCC(Oc2ccc(OC(=O)c3cc(C(F)(F)F)nn3-c3cccc(C(=N)N)c3)cc2)CC1 [compound of Ex. 57, 4-[(1-ethanimidoylpiperidin-4-yl)oxy]phenyl 1-{3-[amino(imino)methyl]phenyl}-3-(trifluoromethyl)-1H-pyrazole-5-carboxylate 2 trifluoroacetate]	5.37	6920	–
